Test results taken from US12565490B2, “Inhibitors of Receptor Interacting Protein Kinase I for the treatment of disease” (Board of Regents, The University of Texas System, priority 2020, dated 2026).
pIC50: −log10 of the molar value.

What follows are molecules tested on human monocytic cell line U937 (assay: Human U937 cellular necroptosis assay). Details: U-937; U937 cells stimulated with 25 ng/mL human TNFalpha and 25 μM z-VAD-FMK; 22 hr; viability by Cell Titer-Glo 2.0; read-out: hU937 IC50.
Type: cell-based
Summary of the method: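 U937 cells (5000/well) driven to necroptosis by 25 ng/mL human TNFalpha plus 25 μM z-VAD-FMK alongside 1:3-diluted compounds, 22 hr at 37° C, 5% CO2. Viability by CellTiter-Glo luminescence; IC50 from four-parameter logistic fit.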

In order of rising pIC50:
1. Cc1cnc(C(=O)N[C@H]2COc3cc(C#N)ccc3N(C)C2=O)nc1N1CCC(F)(F)CC1 [Example 19, (S)-N-(8-cyano-5-methyl-4-oxo-2,3,4,5-tetrahydro-benzo[b][1,4]oxazepin-3-yl)-4-(4,4-difluoropiperidin-1-yl)-5-methylpyrimidine-2-carboxamide]  6.13
2. Cc1ccn(-c2nc(C(=O)N[C@H]3COc4cc(Cl)cnc4N(C)C3=O)ncc2Cl)n1 [Example 107, (S)-5-chloro-N-(8-chloro-5-methyl-4-oxo-2,3,4,5-tetrahydropyrido [3,2-b]-[1,4]oxazepin-3-yl)-4-(3-methyl-1H-pyrazol-1-yl)-pyrimidine-2-carboxamide]  6.22
3. Cc1cnc(C(=O)N[C@H]2COc3cc(C#N)ccc3N(C)C2=O)nc1N1CCCC1 [Example 20, (S)-N-(8-cyano-5-methyl-4-oxo-2,3,4,5-tetrahydro-benzo[b][1,4]oxazepin-3-yl)-5-methyl-4-(pyrrolidin-1-yl)-pyrimidine-2-carboxamide]  6.32
4. Cc1cnc(C(=O)N[C@H]2COc3cc(Cl)cnc3N(C)C2=O)nc1C1COCCO1 (stereo partly drawn) [Example 164, N—((S)-8-chloro-5-methyl-4-oxo-2,3,4,5-tetrahydropyrido[3,2-b][1,4]oxazepin-3-yl)-4-(1,4-dioxan-2-yl)-5-methylpyrimidine-2-carboxamide]  6.45
5. CN1C(=O)[C@@H](NC(=O)c2ncc(Cl)c(-c3cc(F)c(CO)c(F)c3)n2)COc2cc(F)cnc21 [Example 166, (S)-5-chloro-4-(3,5-difluoro-4-(hydroxymethyl)phenyl)-N-(8-fluoro-5-methyl-4-oxo-2,3,4,5-tetrahydropyrido[3,2-b][1,4]oxazepin-3-yl)pyrimidine-2-carboxamide]  6.71
6. Cc1cnc(C(=O)N[C@H]2COc3cc(C#N)ccc3N(C)C2=O)nc1C12CCC(CC1)CC2 [Example 133, (S)-4-(bicyclo[2.2.2]octan-1-yl)-N-(8-cyano-5-methyl-4-oxo-2,3,4,5-tetrahydrobenzo[b]-[1,4]oxazepin-3-yl)-5-methylpyrimidine-2-carboxamide]  6.79
7. Cc1cnc(C(=O)N[C@H]2COc3cc(Cl)cnc3N(C)C2=O)nc1C1CCC(F)(F)CO1 (stereo partly drawn) [Example 158, N-((S)-8-chloro-5-methyl-4-oxo-2,3,4,5-tetrahydro-pyrido[3,2-b][1,4]oxazepin-3-yl)-4-(5,5-difluorotetrahydro-2H-pyran-2-yl)-5-methylpyrimidine-2-carboxamide]  6.83
8. Cc1cc(F)ccc1-c1ccnc(C(=O)N[C@H]2COc3cc(Cl)cnc3N(C)C2=O)n1 [Example 89, (S)-N-(8-chloro-5-methyl-4-oxo-2,3,4,5-tetrahydro-pyrido[3,2-b][1,4]oxazepin-3-yl)-4-(4-fluoro-2-methylphenyl)pyrimidine-2-carboxamide]  6.87
9. CN1C(=O)[C@@H](NC(=O)c2ncc(Cl)c(C3COCCO3)n2)COc2cc(Cl)cnc21 (single isomer, unassigned) [Example 163b]  7.06
10. Cc1cnc(C(=O)N[C@H]2COc3cc(C#N)ccc3N(C)C2=O)nc1-c1ccc(F)c(F)c1 [Example 17, (S)-N-(8-cyano-5-methyl-4-oxo-2,3,4,5-tetrahydro-benzo[b][1,4]oxazepin-3-yl)-4-(3,4-difluorophenyl)-5-methyl-pyrimidine-2-carboxamide]  7.39
11. CN1C(=O)[C@@H](NC(=O)c2ncc(F)c(-c3ccc(F)cc3)n2)COc2cc(Cl)cnc21 [Example 91, (S)-N-(8-chloro-5-methyl-4-oxo-2,3,4,5-tetrahydro-pyrido[3,2-b][1,4]oxazepin-3-yl)-5-fluoro-4-(4-fluorophenyl)-pyrimidine-2-carboxamide]  7.48
12. CN1C(=O)[C@@H](NC(=O)c2ncc(Cl)c(-c3ccccc3)n2)COc2cccnc21 [Example 27, (S)-5-chloro-N-(5-methyl-4-oxo-2,3,4,5-tetrahydropyrido[3,2-b][1,4]oxazepin-3-yl)-4-phenylpyrimidine-2-carboxamide]  7.57
13. CN1C(=O)[C@@H](NC(=O)c2ncc(Cl)c(-c3cc(F)ccc3F)n2)COc2cc(CN3CCn4ncnc4C3)ccc21 [Example 155, (S)-5-chloro-4-(2,5-difluorophenyl)-N-(8-((5,6-dihydro-[1,2,4]triazolo[1,5-a]pyrazin-7(8H)-yl)methyl)-5-methyl-4-oxo-2,3,4,5-tetrahydrobenzo[b]-[1,4]oxazepin-3-yl)pyrimidine-2-carboxamide]  7.61
14. [2H]C([2H])([2H])c1cnc(C(=O)N[C@H]2COc3cc(F)cnc3N(C([2H])([2H])[2H])C2=O)nc1-c1ccccc1F [Example 169, (S)—N-(8-fluoro-5-(methyl-d3)-4-oxo-2,3,4,5-tetrahydropyrido[3,2-b][1,4]oxazepin-3-yl)-4-(2-fluorophenyl)-5-(methyl-d3)pyrimidine-2-carboxamide]  7.68
15. COCCOc1ccc2c(c1)N(C)C(=O)[C@@H](NC(=O)c1ncc(Cl)c(-c3ccc(F)cc3F)n1)CO2 [Example 146, (S)-5-chloro-4-(2,4-difluorophenyl)-N-(7-(2-methoxyethoxy)-5-methyl-4-oxo-2,3,4,5-tetrahydrobenzo[b]-[1,4]oxazepin-3-yl)pyrimidine-2-carboxamide]  7.71
16. CN1C(=O)[C@@H](NC(=O)c2ncc(Cl)c(-c3ccc(C#N)cc3)n2)COc2cc(Cl)cnc21 [Example 105, (S)-5-chloro-N-(8-chloro-5-methyl-4-oxo-2,3,4,5-tetrahydropyrido[3,2-b]-[1,4]oxazepin-3-yl)-4-(4-cyanophenyl)pyrimidine-2-carboxamide]  7.71
17. Cc1cnc(C(=O)NC2CCc3ccccc3NC2=O)nc1-c1ccccc1 (stereo not drawn) [Example 3, 5-methyl-N-(2-oxo-2,3,4,5-tetrahydro-1H-benzo[b]azepin-3-yl)-4-phenylpyrimidine-2-carboxamide]  7.73
18. CN1C(=O)[C@@H](NC(=O)c2ncc(Cl)c(-c3cccc(F)c3)n2)COc2cc(C#N)ccc21 [Example 128, (S)-5-chloro-N-(8-cyano-5-methyl-4-oxo-2,3,4,5-tetrahydrobenzo[b]-[1,4]oxazepin-3-yl)-4-(3-fluorophenyl)pyrimidine-2-carboxamide]  7.79
19. CN1C(=O)[C@@H](NC(=O)c2ncc(Cl)c(-c3ccc(F)cc3F)n2)COc2cc(C#N)ccc21 [Example 138, (S)-5-chloro-N-(8-cyano-5-methyl-4-oxo-2,3,4,5-tetrahydrobenzo[b]-[1,4]oxazepin-3-yl)-4-(2,4-difluorophenyl)pyrimidine-2-carboxamide]  7.79
20. Cc1cccc(-c2nc(C(=O)N[C@H]3COc4cc(Cl)cnc4N(C)C3=O)ncc2Cl)c1 [Example 106, (S)-5-chloro-N-(8-chloro-5-methyl-4-oxo-2,3,4,5-tetrahydropyrido[3,2-b]-[1,4]oxazepin-3-yl)-4-(m-tolyl)-pyrimidine-2-carboxamide]  7.83
21. Cc1cnc(C(=O)N[C@H]2COc3cc(C#N)ccc3N(C)C2=O)nc1-c1ccc(F)cc1 [Example 136, (S)-N-(8-cyano-5-methyl-4-oxo-2,3,4,5-tetrahydrobenzo[b]-[1,4]oxazepin-3-yl)-4-(4-fluorophenyl)-5-methylpyrimidine-2-carboxamide]  7.84
22. Cc1cnc(C(=O)N[C@H]2COc3ccc(N4CC5(CCOCC5)C4)cc3N(C)C2=O)nc1-c1ccccc1 [Example 26, (S)-5-methyl-N-(5-methyl-4-oxo-7-(7-oxa-2-azaspiro[3.5]nonan-2-yl)-2,3,4,5-tetrahydrobenzo[b]-[1,4]oxazepin-3-yl)-4-phenyl-pyrimidine-2-carboxamide]  7.84
23. CN1C(=O)[C@@H](NC(=O)c2ncc(Cl)c(-c3cc(F)cc(F)c3)n2)COc2cc(Cl)cnc21 [Example 99, (S)-5-chloro-N-(8-chloro-5-methyl-4-oxo-2,3,4,5-tetrahydropyrido [3,2-b]-[1,4]oxazepin-3-yl)-4-(3,5-difluorophenyl)pyrimidine-2-carboxamide]  7.86
24. CN1C(=O)[C@@H](NC(=O)c2ncc(Cl)c(-c3ccc(F)cc3F)n2)COc2ccc(-c3cn[nH]c3)cc21 [Example 151]  7.89
25. Cc1cnc(C(=O)N[C@H]2COc3ccc(Br)cc3N(C)C2=O)nc1-c1ccccc1 [Example 22, (S)-N-(7-bromo-5-methyl-4-oxo-2,3,4,5-tetrahydro-benzo[b][1,4]oxazepin-3-yl)-5-methyl-4-phenylpyrimidine-2-carboxamide]  7.92
26. CN1C(=O)[C@@H](NC(=O)c2ncc(Cl)c(-c3ccc(Cl)cc3)n2)COc2cccnc21 [Example 52, (S)-5-chloro-4-(4-chlorophenyl)-N-(5-methyl-4-oxo-2,3,4,5-tetrahydro-pyrido[3,2-b][1,4]oxazepin-3-yl)pyrimidine-2-carboxamide]  7.92
27. Cc1cnc(C(=O)N[C@H]2COc3cc(Br)cnc3N(C)C2=O)nc1-c1ccccc1 [Example 29, (S)-N-(8-bromo-5-methyl-4-oxo-2,3,4,5-tetrahydropyrido[3,2-b][1,4]oxazepin-3-yl)-5-methyl-4-phenylpyrimidine-2-carboxamide]  7.93
28. Cc1ccc(-c2nc(C(=O)N[C@H]3COc4cccnc4N(C)C3=O)ncc2C)cc1F [Example 62, (S)-4-(3-fluoro-4-methylphenyl)-5-methyl-N-(5-methyl-4-oxo-2,3,4,5-tetrahydropyrido[3,2-b]-[1,4]oxazepin-3-yl)pyrimidine-2-carboxamide]  7.98
29. CN1C(=O)[C@@H](NC(=O)c2ncc(Cl)c(-c3cc(F)ccc3F)n2)COc2cccnc21 [Example 51, (S)-5-chloro-4-(2,5-difluorophenyl)-N-(5-methyl-4-oxo-2,3,4,5-tetrahydro-pyrido[3,2-b][1,4]oxazepin-3-yl)pyrimidine-2-carboxamide]  7.98
30. Cc1cnc(C(=O)N[C@H]2COc3ccc(Oc4cnn(C)c4)cc3N(C)C2=O)nc1-c1ccccc1F [Example 159, (S)-4-(2-fluorophenyl)-5-methyl-N-(5-methyl-7-((1-methyl-1H-pyrazol-4-yl)oxy)-4-oxo-2,3,4,5-tetrahydrobenzo[b]-[1,4]oxazepin-3-yl)pyrimidine-2-carboxamide]  8.05
